Measured values published in US20110262556A1, “SILVER/WATER, SILVER GELS AND SILVER-BASED COMPOSITIONS; AND METHODS FOR MAKING AND USING THE SAME” (AMERICAN SILVER, LLC, priority 2005, published 2011).
≈ marks a conversion by molar mass, not a printed value. Where two headings read alike, the source gives them in different places.

Tests used:
S. aureus ATCC 6538 P = test: Zone of inhibition, agar well; details: antibiotic amount (1-200 mcg)
MRSA 1 = test: Zone of inhibition, agar well; details: antibiotic amount (1-200 mcg)
MRSA 2 = test: Zone of inhibition, agar well; details: antibiotic amount (1-200 mcg)
[1] = tested on: Escherichia coli MDR clinical isolate (stool); test: Antibiotic sensitivity, Kirby Bauer; details: for resistance of isolate: gram-negative isolate E. coli
S. boydii = test: MIC/MBC broth microdilution; format: cell-based, Shigella boydii; details: S. boydii
E. aerogenes = test: MIC/MBC broth microdilution; format: cell-based, Enterobacter aerogenes
S. typhimurium = test: MIC/MBC broth microdilution; format: cell-based; details: S. typhimurium
S arizona = test: MIC/MBC broth microdilution; format: cell-based, Salmonella arizona
P. aeruginosa = test: MIC/MBC broth microdilution; format: cell-based, Pseudomonas aeruginosa
S. pneumoniae = test: MIC/MBC broth microdilution; format: cell-based
S. pyogenes = test: MIC/MBC broth microdilution; format: cell-based, Streptococcus pyogenes
E. cloacae = test: MIC/MBC broth microdilution; format: cell-based
K. pneumoniae = test: MIC/MBC broth microdilution; format: cell-based, Klebsiella pneumoniae
S. aureus = test: MIC/MBC broth microdilution; format: cell-based, Staphylococcus aureus
S. mutans = test: MIC/MBC broth microdilution; format: cell-based, Streptococcus mutans
S. faecalis = test: MIC/MBC broth microdilution; format: cell-based, Streptococcus faecalis
E. coli = test: MIC/MBC broth microdilution; format: cell-based, Escherichia coli
S gordonii = test: MIC/MBC broth microdilution; format: cell-based, Streptococcus gordonii
[2] = tested on: Pseudomonas aeruginosa MDR clinical isolate (sputum); test: Antibiotic sensitivity, Kirby Bauer; details: gram-negative isolate Pseudomonas
K. oxytoca = test: MIC/MBC broth microdilution; format: cell-based; details: K. oxytoca
S.typhi = test: Zone of inhibition, agar well; details: antibiotic amount (5-200 mcg)
E. coil = test: Zone of inhibition, agar well; details: E.coli; antibiotic amount (5-200 mcg)

`Cc1onc(-c2ccccc2Cl)c1C(=O)N[C@@H]1C(=O)N2[C@@H]1SC(C)(C)[C@@H]2C(=O)O` [Cloxacillin] was tested, and the “zone of inhibition, antibiotics” value (S. aureus ATCC 6538 P) was “Clear”, the “zone of inhibition, antibiotics” value (MRSA 1) was “Clear” and the “zone of inhibition, antibiotics” value (MRSA 2) was 13 mm.

With `NC[C@H]1O[C@H](O[C@H]2[C@H](O)[C@@H](O[C@H]3O[C@H](CO)[C@@H](O)[C@H](N)[C@H]3O)[C@H](N)C[C@@H]2N)[C@H](O)[C@@H](O)[C@@H]1O` [kanamycin] the “Zone size (mm)” value ([1]; E.c, Kirby-Bauer antibiotic disc) was 14 mm.

Work on `CC1COc2c(N3CCN(C)CC3)c(F)cc3c(=O)c(C(=O)O)cn1c23` (stereo not shown) [Ofloxacin] yielded an MBC (S. boydii; Shigella boydii, read-out: MBC) of 0.156 µg/mL (≈ 0.432 µM), an MIC (S. boydii; Shigella boydii, read-out: MIC) of 0.078 µg/mL (≈ 0.216 µM) and an MBC (E. aerogenes; Klebsiella aerogenes) of 0.156 µg/mL (≈ 0.432 µM). The MIC (E. aerogenes; Klebsiella aerogenes) was 0.078 µg/mL (≈ 0.216 µM), the “zone of inhibition, antibiotics” value (MRSA 1) was 15 mm and the MBC (S. typhimurium; Salmonella enterica, read-out: MBC) was 0.156 µg/mL (≈ 0.432 µM). It also gave an MIC (S. typhimurium; Salmonella enterica, read-out: MIC) of 0.078 µg/mL (≈ 0.216 µM), an MBC (S arizona; Salmonella, read-out: MBC) of 0.078 µg/mL (≈ 0.216 µM) and an MIC (S arizona; Salmonella, read-out: MIC) of 0.078 µg/mL (≈ 0.216 µM). For the same compound, the MBC (P. aeruginosa; Pseudomonas aeruginosa, read-out: MBC) was 0.313 µg/mL (≈ 0.866 µM), the MIC (P. aeruginosa; Pseudomonas aeruginosa, read-out: MIC) was 0.156 µg/mL (≈ 0.432 µM) and the MBC (S. pneumoniae; Streptococcus pneumoniae, read-out: MBC) was 2.5 µg/mL (≈ 6.92 µM). It also gave an MIC (S. pneumoniae; Streptococcus pneumoniae, read-out: MIC) of 2.5 µg/mL (≈ 6.92 µM), an MBC (S. pyogenes; Streptococcus pyogenes, read-out: MBC) of 2.5 µg/mL (≈ 6.92 µM) and an MIC (S. pyogenes; Streptococcus pyogenes, read-out: MIC) of 1.25 µg/mL (≈ 3.46 µM). For the same compound, the MBC (E. cloacae; Enterobacter cloacae) was 0.156 µg/mL (≈ 0.432 µM), the MIC (E. cloacae; Enterobacter cloacae, read-out: MIC) was 0.156 µg/mL (≈ 0.432 µM) and the MBC (K. pneumoniae; Klebsiella pneumoniae) was 0.625 µg/mL (≈ 1.73 µM). For the same compound, the MIC (K. pneumoniae; Klebsiella pneumoniae, read-out: MIC) was 0.417 µg/mL (≈ 1.15 µM), the MBC (S. aureus; Staphylococcus aureus, read-out: MBC) was 0.625 µg/mL (≈ 1.73 µM) and the MIC (S. aureus; Staphylococcus aureus, read-out: MIC) was 0.417 µg/mL (≈ 1.15 µM). The MBC (S. mutans; Streptococcus mutans, read-out: MBC) was > 5 µg/mL, the MIC (S. mutans; Streptococcus mutans, read-out: MIC) was 2.5 µg/mL (≈ 6.92 µM) and the MBC (S. faecalis; Enterococcus faecalis, read-out: MBC) was 5 µg/mL (≈ 13.8 µM). For the same compound, the MIC (S. faecalis; Enterococcus faecalis, read-out: MIC) was 1.25 µg/mL (≈ 3.46 µM), the MBC (E. coli; Escherichia coli, read-out: MBC) was 0.156 µg/mL (≈ 0.432 µM) and the MIC (E. coli; Escherichia coli, read-out: MIC) was 0.104 µg/mL (≈ 0.288 µM). For the same compound, the MBC (S gordonii; Streptococcus gordonii, read-out: MBC) was 5 µg/mL (≈ 13.8 µM), the MIC (S gordonii; Streptococcus gordonii, read-out: MIC) was 2.5 µg/mL (≈ 6.92 µM) and the “zone of inhibition, antibiotics” value (MRSA 2) was 16 mm.

`CCn1cc(C(=O)O)c(=O)c2ccc(C)nc21` [nalidixic acid] was tested, and the resistance of isolate [1] was “resistance” and the resistance of isolate [2] was “resistance”.

In the case of `CCN1CCN(C(=O)N[C@@H](C(=O)N[C@@H]2C(=O)N3C(C(=O)O)=C(CSc4nnnn4C)CS[C@H]23)c2ccc(O)cc2)C(=O)C1=O` [Cefaperazon], the MBC (S. boydii) is reported as 0.625/0.625 ppm, the MIC (S. boydii) is reported as 0.625/0.625 ppm and the MBC (E. aerogenes; E. aerogenes) is reported as > 5.0 ppm. For the same compound, the MIC (E. aerogenes; E. aerogenes) was 2.92 ppm, the MBC (S. typhimurium) was 2.5 ppm and the MIC (S. typhimurium) was 1.25 ppm. For the same compound, the MBC (S arizona) was > 5.0 ppm, the MIC (S arizona) was 0.833 ppm and the MBC (P. aeruginosa) was 5.0 ppm. The MIC (P. aeruginosa) was 2.5 ppm, the MBC (S. pneumoniae) was 0.313/0.313 ppm and the MIC (S. pneumoniae) was 0.313/0.313 ppm. For the same compound, the MBC (S. pyogenes) was 1.25 ppm, the MIC (S. pyogenes) was 0.313 ppm and the MIC (K. pneumoniae) was >5.0 ppm. For the same compound, the MBC (S. aureus) was 5.0/5.0 ppm, the MIC (S. aureus) was 5.0/5.0 ppm and the MBC (S. mutans) was > 5 ppm. For the same compound, the MIC (S. mutans) was 1.25 ppm, the MIC (S. faecalis) was >5.0 ppm and the MBC (E. coli) was > 5.0 ppm. For the same compound, the MIC (E. coli) was 0.625 ppm, the MBC (S gordonii; S gordonii) was 1.25/1.25 ppm and the MIC (S gordonii; S gordonii) was 1.25/1.25 ppm. The MBC (K. oxytoca) was > 5.0 ppm and the MIC (K. oxytoca) was 1.25 ppm.

For `CCC[C@@H]1C[C@@H](C(=O)N[C@@H]([C@H]2O[C@H](SC)[C@H](O)[C@@H](O)[C@H]2O)[C@@H](C)O)N(C)C1` [Lincomycin], the “zone of inhibition, antibiotics” value (S. aureus ATCC 6538 P) was 1Clear, the “zone of inhibition, antibiotics” value (MRSA 1) was “Clear” and the “zone of inhibition, antibiotics” value (MRSA 2) was “Clear”.

For `CC1(C)S[C@@H]2[C@H](NC(=O)[C@H](N)c3ccccc3)C(=O)N2[C@H]1C(=O)O` [Ampicillin], the “zone of inhibition, antibiotics” value (S. aureus ATCC 6538 P) was “Clear”, the “zone of inhibition, antibiotics” value (MRSA 1) was 15 mm and the resistance of isolate [1] was “resistance”. The resistance of isolate [2] was “resistance”, the “zone of inhibition, antibiotics” value (S.typhi) was 20 mm and the “zone of inhibition, antibiotics” value (E. coil) was 23 mm. The “zone of inhibition, antibiotics” value (MRSA 2) was 18 mm.

For `CC1(C)S[C@@H]2[C@H](NC(=O)Cc3ccccc3)C(=O)N2[C@H]1C(=O)O` [Penicillin G], the MIC (S. boydii) was >5.0 ppm, the MIC (E. aerogenes; E. aerogenes) was >5.0 ppm and the MIC (S. typhimurium) was >5.0 ppm. The MIC (S arizona) was >5.0 ppm, the MBC (P. aeruginosa) was > 5.0 ppm and the MIC (P. aeruginosa) was 0.13 ppm. For the same compound, the MBC (S. pneumoniae) was 0.019/0.019 ppm, the MIC (S. pneumoniae) was 0.019/0.019 ppm and the MIC (S. pyogenes) was >5.0 ppm. For the same compound, the MIC (E. cloacae) was >5.0 ppm, the MIC (K. pneumoniae) was >5.0 ppm and the MBC (S. aureus) was > 5.0 ppm. The MIC (S. aureus) was 2.5 ppm, the MBC (S. mutans) was > 5 ppm and the MIC (S. mutans) was 0.521 ppm. The MBC (S. faecalis) was 5.0/>5.0 ppm, the MIC (S. faecalis) was 5.0/>5.0 ppm and the MIC (E. coli) was >5.0 ppm. The MBC (S gordonii; S gordonii) was 0.039 ppm, the MIC (S gordonii; S gordonii) was 0.009 ppm and the MIC (K. oxytoca) was >5.0 ppm.

For `CO/N=C(\C(=O)N[C@@H]1C(=O)N2C(C(=O)O)=C(COC(C)=O)CS[C@H]12)c1csc(N)n1` [Cefotaxime], the “zone of inhibition, antibiotics” value (S. aureus ATCC 6538 P) was 26 mm, the “zone of inhibition, antibiotics” value (S.typhi) was 22 mm and the “zone of inhibition, antibiotics” value (E. coil) was 21 mm. For the same compound, the “zone of inhibition, antibiotics” value (MRSA 2) was “-Clear”.
